Patent publication US20120232062A1, “AZAINDAZOLES TO TREAT FLAVIVIRIDAE VIRUS INFECTION” (EIGER BIOPHARMACEUTICALS, INC., priority 2009, published 2012)

Assays:
[1] = Liver microsome stability, human; format: in vitro ADME; conditions: for liver stability predicted by in vitro PK profiles: human vs rat liver, in words
Description: Metabolic stability assays are designed to measure the stability of a test compound in a variety of assay matrices from human and animal species. From a metabolism perspective, a drug would be relatively stable, have a small first-pass effect, and maintain an effective concentration in blood for a reasonable period of time. A microsomal preparation from the liver contains all CYP isozymes and other membrane-bound drug metabolizing enzymes which are responsible for the metabolism for the majority of drugs in humans. Metabolic stability in liver microsomes can determine half-life (T1/2) and intrinsic clearance (Clint). The determination of Clint may be useful to determine whether metabolism is the major elimination pathway when it is compared to total body clearance in vivo. For high metabolic stability in liver microsomes: […] Human, Sprague Dawley rat, and CD-1 mouse liver microsome samples were purchased from BD Gentest. An in vitro metabolic stability assay suitable for use in predicting first pass metabolism of the compounds useful in the methods of the invention is described in this example. […] 6 mM NADPH in 0.1 M K-phosphate buffer is prepared by dissolving 25.1 mg of NADPH tetrasodium salt in 5 mL of K-phosphate buffer. […] The plate is pre-incubated at 37° C. for 10 minutes. 15 μL of NADPH stock solution (6 mM) is added to the wells designated for Time 60 and timed. At 30 min, 15 min, and 5 min, 15 μL of NADPH stock solution (6 mM) is added to the wells. At the end of incubation, 135 μL of ACN containing IS is added to all the wells (60 min, 30 min, 15 min, 5 min and 0 min). Then 15 μL of NADPH stock solution (6 mM) is added to the wells designated as Time 0.

[2] = Caco-2 permeability testing; format: in vitro ADME, human; conditions: human; for efflux ratio at 90 min, 10 µM: pH 7.4, Caco-2, Papp (B-A)/Papp (A-B), read-out: Efflux/Permeability ratio (desired <3); for Papp A→B at 90 min, 10 µM: Caco-2, pH 7.4, Caco-2, A-B, read-out: Permeability (second figure of Efflux/permeability), Papp (A-B); for Papp B→A at 90 min, 10 µM: Caco-2, pH 7.4, Caco-2, B-A, read-out: Efflux (first figure of Efflux/permeability), Papp (B-A)
Description: Intestinal epithelium permeability is a critical characteristic that determines the rate and extent of human absorption and affects bioavailability of a drug candidate. Poor intestinal permeability leads to limited absorption. Generally, higher absorption is preferred. The Caco-2 cell line is a human colon adeno-carcinoma cell line that resembles the epithelial lining of the human small intestine. Several transport proteins that are expressed in human intestinal epithelium are also expressed in the Caco-2 cell model. Some transporter proteins are efflux systems which mediate the secretion of compounds from inside the cell back to the apical lumen (representative of the intestinal lumen), limiting overall absorption. In a permeability assay, the apparent permeability coefficient is measured between the apical to basolateral sides of a cell monolayer, Papp (A-B), and the basolateral to the apical side, Papp (B-A). Papp (A-B)<2×10^−6 cm/s is predictive of low permeability to the basolateral side, 2×10^−6 cm/s<Papp (A-B)<20×10^−6 cm/s is predictive of medium permeability, and Papp (A-B)>20×10^−6 cm/s is predictive of high permeability. In the B-A permeability assay, Papp (B-A) is measured and compounds evaluated for efflux potential. Together, these assay results are reported as a ratio of Papp (B-A) to Papp (A-B). Papp (B-A)/Papp (A-B)>3 are likely to be transported by one of the efflux systems, and have poor absorption. Papp (B-A)/Papp (A-B)<3 are likely to show reasonable intestinal absorption. An in vitro drug absorption assay suitable for use in predicting intestinal absorption of the compounds useful in the methods of the invention is described in this example. The embodiments of this assay described in this example were developed by Shanghai ChemPartner Co., Ltd., a corporation of China with its principal office located at 720 Cailun Road, Building No. 3, Shanghai 201203, China.
Caco-2 (ATCC, catalog No. HTB-37™) cells are cultured in growth medium (MEM+10% FBS+1% NEAA). The growth medium is prepared by adding 50 mL FBS and 5 mL NEAA to 445 mL of MEM or by adjusting the final volume according to actual needs. Trypsin-EDTA (Invitrogen, Cat #25200-072) is also used.
Hanks Balanced Salt Solution (HBSS, Invitrogen, Cat #14025-092) with 25 mM HEPES, pH 7.4, HBSS buffer with 0.2% DMSO (50 μL DMSO into 25 ml HBSS buffer), and HBSS buffer with 0.4% DMSO (100 μL DMSO into 25 ml HBSS buffer) are used.
10 mM stock solutions of a compound is prepared in DMSO and Lucifer Yellow in assay buffer using the formula (Actual Weight/Molecular Weight)/mL solvent=10 mM. Erythromycin, Metoprolol, and Atenolol are used as reference compounds. Donor solutions (10 μM for compounds and 5 μM for Lucifer Yellow) are prepared. For A-B, 4 μL of 10 mM compound stock solution and 2 μL of 10 mM Lucifer Yellow stock solution are loaded into 4 mL of HBSS buffer, and centrifuged (5 min, 4000 rpm) to precipitate undissolved particles. Supernatants are collected for compound dosing. For B-A, 4 μL (compounds) of 10 mM compound stock solution is added to 4 mL HBSS buffer with 0.2% DMSO, and centrifuged (5 min, 4000 rpm) to precipitate undissolved particles. Supernatants are collected for compound dosing.
Receiver solutions are prepared. For A-B, the solution is HBSS buffer with 0.4% DMSO. For B-A, 2 μL of 10 mM Lucifer Yellow stock solution is added to 4 mL of HBSS buffer with 0.2% DMSO. Compound solutions are prepared for standard curve (3 μM/1 μM/0.2 μM/0.04 μM/0.01 μM/0.005 μM):
1× solution: 3 μL of 20× solution (0.1-60 μM)+57 μL 0.4% DMSO HBSS+60 μL acetonitrile (ACN) with internal standard (IS, 200 ng/mL Osalmid). The assay was performed as described below
Stock cultures are maintained in MEM+10% FBS+1% NEAA, grown in 75 cm^2 tissue culture treated flasks and split (passed) 2 times weekly to maintain desired confluence. For maintenance passage, trypsinized cells are routinely distributed into new flasks at a standard passage ratio of 1:4. […]

SMILES	human liver microsome (HLM, % parent remaining) ([1]; after 15 min)	human liver microsome (HLM, % parent remaining) ([1]; after 30 min)	human liver microsome (HLM, % parent remaining) ([1]; after 60 min)	liver stability predicted by in vitro PK profiles [1]	efflux ratio at 90 min, 10 µM [2]	Papp A→B at 90 min, 10 µM [2]	Papp B→A at 90 min, 10 µM [2]
Cn1nc(C(=O)NC2CCN(CCN3CCCCC3)CC2)c2ccc(N3CCCCCC3)nc21 [EBP1047]	78 % parent remaining	62 % parent remaining	34 % parent remaining	higher stability in human liver vs rat liver			
CCN1CCC(NC(=O)c2nn(C)c3nc(N4CCCCCC4)ccc23)CC1 [EBP1595]	73 % parent remaining	46 % parent remaining	14 % parent remaining	higher stability in human liver vs rat liver	0.9		
Cn1nc(C(=O)NC2CCN(CCN3CCCC3)CC2)c2ccc(N3CCCCCC3)nc21 [EBP1597]	81 % parent remaining	74 % parent remaining	57 % parent remaining	higher stability in human liver vs rat liver	0.8		
CC(C)N1CCC(NC(=O)c2nn(C)c3nc(N4CCCCCC4)ccc23)CC1 [EBP1604]	71 % parent remaining	63 % parent remaining	28 % parent remaining	higher stability in human liver vs rat liver	0.8	12 ×10⁻⁶ cm/s	9 ×10⁻⁶ cm/s
Cn1nc(C(=O)NC2CCNCC2)c2ccc(N3CCCCCC3)nc21.O=C(O)C(F)(F)F.O=C(O)C(F)(F)F [compound 697]	96 % parent remaining	109 % parent remaining	108 % parent remaining			5.5 ×10⁻⁶ cm/s	48 ×10⁻⁶ cm/s
CCC(CC)Oc1ccc2c(C(=O)NC3CCNCC3)n[nH]c2n1 [compound 726]	86 % parent remaining	81 % parent remaining	65 % parent remaining			3.5 ×10⁻⁶ cm/s	41 ×10⁻⁶ cm/s
Clc1ccc(Cn2nc(COCCCN3CCCCC3)c3ccc(N4CCCCCC4)nc32)cc1 [compound 749]						0.44 ×10⁻⁶ cm/s	0.52 ×10⁻⁶ cm/s
CCC(CC)Oc1ccc2c(COCC3CCCNC3)nn(Cc3ccc(Cl)cc3)c2n1.O=C(O)C(F)(F)F (stereo not drawn) [compound 755]						0.4 ×10⁻⁶ cm/s	0.2 ×10⁻⁶ cm/s
O=C(NC1CCNCC1)c1nn(C(=O)C2CCCCC2)c2nc(N3CCCCCC3)ccc12.O=C(O)C(F)(F)F.O=C(O)C(F)(F)F.O=C(O)C(F)(F)F [compound 989]						5 ×10⁻⁶ cm/s	3 ×10⁻⁶ cm/s
Cn1nc(C(=O)NC2CCN(CCN3CCCCC3)CC2)c2ccc(N3CCCCCC3)nc21 [compound 1047]	78 % parent remaining	62 % parent remaining	34 % parent remaining			10.5 ×10⁻⁶ cm/s	7.6 ×10⁻⁶ cm/s
Cn1nc(C(=O)NC2CCN(CC3CCCCC3)CC2)c2ccc(N3CCCCCCC3)nc21 [compound 1062]						1.7 ×10⁻⁶ cm/s	0.6 ×10⁻⁶ cm/s
Cn1nc(C(=O)NC2CCN(CC(F)F)CC2)c2ccc(N3CCCCCC3)nc21 [compound 1110]	8 % parent remaining	0.4 % parent remaining	0.4 % parent remaining			13.8 ×10⁻⁶ cm/s	10.1 ×10⁻⁶ cm/s
Cn1nc(CCCN2CCCC2)c2ccc(N3CCCCCCC3)nc21 [compound 1171]	67 % parent remaining	44 % parent remaining	23 % parent remaining			17 ×10⁻⁶ cm/s	11 ×10⁻⁶ cm/s
Cn1nc(CCCN2CCCCC2CO)c2ccc(N3CCCCCCC3)nc21 (stereo not drawn) [compound 1456]	28 % parent remaining	6 % parent remaining	0.7 % parent remaining			15 ×10⁻⁶ cm/s	15 ×10⁻⁶ cm/s
CCN1CCC(NC(=O)c2nn(C)c3nc(N4CCCCCC4)ccc23)CC1 [compound 1595]	73 % parent remaining	45 % parent remaining	14 % parent remaining			15.3 ×10⁻⁶ cm/s	14.4 ×10⁻⁶ cm/s
Cn1nc(C(=O)NC2CCN(CCN3CCCC3)CC2)c2ccc(N3CCCCCC3)nc21 [compound 1597]	81 % parent remaining	74 % parent remaining	58 % parent remaining			9.2 ×10⁻⁶ cm/s	6.5 ×10⁻⁶ cm/s
